How the values were obtained:
Format in all cases: functional
Conditions in all cases: Stomach
[1] = test system: Mus musculus; assay: Antiulcerogenic activity in Kunming mouse assessed as inhibition of ethanol-induced gastric ulcer at 4.3 mg/kg, po qd for 5 days measured 1 hr post last dose relative to control
[2] = test system: Mus musculus; assay: Antiulcerogenic activity in Kunming mouse assessed as inhibition of ethanol-induced gastric ulcer at 4.1 mg/kg, po qd for 5 days measured 1 hr post last dose relative to control
[3] = test system: Mus musculus; assay: Antiulcerogenic activity in Kunming mouse assessed as inhibition of ethanol-induced gastric ulcer at 3.2 mg/kg, po qd for 5 days measured 1 hr post last dose relative to control
[4] = test system: Mus musculus; assay: Antiulcerogenic activity in Kunming mouse assessed as inhibition of ethanol-induced gastric ulcer at 4 mg/kg, po qd for 5 days measured 1 hr post last dose relative to control
[5] = test system: Mus musculus; assay: Antiulcerogenic activity in Kunming mouse assessed as inhibition of ethanol-induced gastric ulcer at 3.3 mg/kg, po qd for 5 days measured 1 hr post last dose relative to control
[6] = test system: Mus musculus; assay: Antiulcerogenic activity in Kunming mouse assessed as inhibition of ethanol-induced gastric ulcer at 3.7 mg/kg, po qd for 5 days measured 1 hr post last dose relative to control
[7] = test system: Mus musculus; assay: Antiulcerogenic activity in Kunming mouse assessed as inhibition of ethanol-induced gastric ulcer at 3.1 mg/kg, po qd for 5 days measured 1 hr post last dose relative to control
[8] = test system: Mus musculus; assay: Antiulcerogenic activity in Kunming mouse assessed as inhibition of ethanol-induced gastric ulcer at 3.6 mg/kg, po qd for 5 days measured 1 hr post last dose relative to control
[9] = test system: Mus musculus; assay: Antiulcerogenic activity in Kunming mouse assessed as inhibition of ethanol-induced gastric ulcer at 3.9 mg/kg, po qd for 5 days measured 1 hr post last dose relative to control
[10] = test system: Mus musculus; assay: Antiulcerogenic activity in Kunming mouse assessed as inhibition of ethanol-induced gastric ulcer at 4.6 mg/kg, po qd for 5 days measured 1 hr post last dose relative to control
[11] = test system: Mus musculus; assay: Antiulcerogenic activity in Kunming mouse assessed as inhibition of ethanol-induced gastric ulcer at 4.7 mg/kg, po qd for 5 days measured 1 hr post last dose relative to control
[12] = test system: Mus musculus; assay: Antiulcerogenic activity in Kunming mouse assessed as inhibition of ethanol-induced gastric ulcer at 4.5 mg/kg, po qd for 5 days measured 1 hr post last dose relative to control
[13] = test system: Mus musculus; assay: Antiulcerogenic activity in Kunming mouse assessed as inhibition of ethanol-induced gastric ulcer at 13.4 mg/kg, po qd for 5 days measured 1 hr post last dose relative to control
[14] = test system: Mus musculus; assay: Antiulcerogenic activity in Kunming mouse assessed as inhibition of ethanol-induced gastric ulcer at 3 mg/kg, po qd for 5 days measured 1 hr post last dose relative to control

Question: For `Cc1cc(S(=O)(=O)Nc2cccc(Br)c2)c2c(C)ccc(C(C)C)cc1-2`, which inhibition in vivo at 4.3 mg/kg [1] is on record?
Answer: 51.3%

Question: Which inhibition in vivo at 4.1 mg/kg [2] does the source give for `COc1ccc(NS(=O)(=O)c2cc(C)c3cc(C(C)C)ccc(C)c2-3)c(OC)c1` here?
Answer: 52.8%

Question: `Cc1cc(S(=O)(=O)NC(C)C)c2c(C)ccc(C(C)C)cc1-2` was tested. Which inhibition in vivo at 3.2 mg/kg [3] did it give?
Answer: 18.7%

Question: Which inhibition in vivo at 4 mg/kg [4] does the source give for `Cc1cc(S(=O)(=O)Nc2cccc3ccccc23)c2c(C)ccc(C(C)C)cc1-2` here?
Answer: 50.5%

Question: For `Cc1cc(S(=O)(=O)NCC(C)C)c2c(C)ccc(C(C)C)cc1-2`, which inhibition in vivo at 3.3 mg/kg [5] is on record?
Answer: 33.9%

Question: Which inhibition in vivo at 3.2 mg/kg [3] does the source give for `CCCNS(=O)(=O)c1cc(C)c2cc(C(C)C)ccc(C)c1-2` here?
Answer: 33%

Question: Which inhibition in vivo at 3.7 mg/kg [6] does the source give for `Cc1ccc(NS(=O)(=O)c2cc(C)c3cc(C(C)C)ccc(C)c2-3)cc1` here?
Answer: 23.1%

Question: Which inhibition in vivo at 3.1 mg/kg [7] does the source give for `CCNS(=O)(=O)c1cc(C)c2cc(C(C)C)ccc(C)c1-2` here?
Answer: 24.1%

Question: For `Cc1cc(S(=O)(=O)NC2CCCCC2)c2c(C)ccc(C(C)C)cc1-2`, which inhibition in vivo at 3.6 mg/kg [8] is on record?
Answer: 50.9%

Question: With `Cc1cc(S(=O)(=O)NCc2ccccc2)c2c(C)ccc(C(C)C)cc1-2` as the compound, how does the inhibition in vivo at 3.7 mg/kg [6] read?
Answer: 2.46%

Question: For `Cc1cc(S(=O)(=O)Nc2ccc(Cl)cc2)c2c(C)ccc(C(C)C)cc1-2`, which inhibition in vivo at 3.9 mg/kg [9] is on record?
Answer: 24.8%

Question: For `Cc1cc(S(=O)(=O)Nc2ccc(N)cc2)c2c(C)ccc(C(C)C)cc1-2`, which inhibition in vivo at 3.1 mg/kg [7] is on record?
Answer: 45.2%

Question: `Cc1cc(S(=O)(=O)Nc2ccc(/N=C/c3ccccc3)cc2)c2c(C)ccc(C(C)C)cc1-2` was tested. Which inhibition in vivo at 4.6 mg/kg [10] did it give?
Answer: 17.1%

Question: How did the inhibition in vivo at 4.7 mg/kg [11] turn out when `Cc1cc(S(=O)(=O)Nc2ccc(/N=C/c3ccccc3O)cc2)c2c(C)ccc(C(C)C)cc1-2` was run?
Answer: 28.7%

Question: How did the inhibition in vivo at 4.6 mg/kg [10] turn out when `Cc1cc(S(=O)(=O)Nc2ccc(/N=C/c3cccs3)cc2)c2c(C)ccc(C(C)C)cc1-2` was run?
Answer: 50.2%

Question: For `COc1ccc(/C=N\NS(=O)(=O)c2cc(C)c3cc(C(C)C)ccc(C)c2-3)cc1`, which inhibition in vivo at 4.1 mg/kg [2] is on record?
Answer: 4.08%

Question: For `Cc1cc(S(=O)(=O)N/N=C\c2ccc(C(F)(F)F)cc2)c2c(C)ccc(C(C)C)cc1-2`, which inhibition in vivo at 4.5 mg/kg [12] is on record?
Answer: 24.8%

Question: Which inhibition in vivo at 4 mg/kg [4] does the source give for `Cc1cc(S(=O)(=O)N/N=C\c2ccccc2O)c2c(C)ccc(C(C)C)cc1-2` here?
Answer: 12.2%

Question: With `Cc1cc(S(=O)(=O)N/N=C\c2cccs2)c2c(C)ccc(C(C)C)cc1-2` as the compound, how does the inhibition in vivo at 3.9 mg/kg [9] read?
Answer: 30.7%

Question: `COc1ccc2[nH]c([S+]([O-])Cc3ncc(C)c(OC)c3C)nc2c1` (stereo unspecified) [OMEPRAZOLE] was tested. Which inhibition in vivo at 13.4 mg/kg [13] did it give?
Answer: 36.7%

Question: `Cc1cc(S(=O)(=O)O)c2c(C)ccc(C(C)C)cc1-2` [SODIUM GUALENATE] was tested. Which inhibition in vivo at 3 mg/kg [14] did it give?
Answer: 32.6%
